Laboratory results: ChEMBL document CHEMBL5126563, “Design, synthesis, in silico studies, and antiproliferative evaluations of novel indolin-2-one derivatives containing 3-hydroxy-4-pyridinone fragment” (Bioorg Med Chem Lett, 2022)

Experiments:
Type in all cases: functional, cell-based
MOLM-13 = assay: Cytotoxicity against human MOLM-13 cells measured after 48 hrs by MTT assay; conditions: MOLM-13, 48 h
K562 = assay: Cytotoxicity against human K562 cells measured after 48 hrs by MTT assay; conditions: K562, 48 h
MCF7 = assay: Cytotoxicity against human MCF7 cells measured after 48 hrs by MTT assay; conditions: MCF7, 48 h
A549 = assay: Cytotoxicity against human A549 cells measured after 48 hrs by MTT assay; conditions: A549, 48 h

In the case of `N#Cc1cc2cc(CN3CCC(Nc4ncnc5sc(CC(F)(F)F)cc45)CC3)c(O)cc2n1Cc1cn[nH]c1`, the EC50 (MOLM-13) is reported as 140 nM and the EC50 (K562) is reported as 2700 nM.
With `CC(=O)Nc1ccc(NC(=O)CN2C(=O)/C(=N\NC(=O)Cn3ccc(=O)c(O)c3C)c3ccccc32)cc1` the EC50 (MCF7) was 51.9 µM and the EC50 (A549) was greater than 100 µM.
`Cc1c(O)c(=O)ccn1CC(=O)N/N=C1\C(=O)N(CC(=O)Nc2cccc(Cl)c2)c2ccccc21` gave an EC50 (MCF7) of 34.6 µM and an EC50 (A549) of 28 µM.
`Cc1cccc(NC(=O)CN2C(=O)/C(=N\NC(=O)Cn3ccc(=O)c(O)c3C)c3ccccc32)c1C` showed an EC50 (MCF7) of 51.9 µM and an EC50 (A549) of 39.2 µM.
Work on `Cc1ccc(NC(=O)CN2C(=O)/C(=N\NC(=O)Cn3ccc(=O)c(O)c3C)c3ccccc32)cc1` yielded an EC50 (MCF7) of 52.2 µM and an EC50 (A549) of 47.5 µM.
Compound `Cc1c(O)c(=O)ccn1CC(=O)N/N=C1\C(=O)N(CC(=O)Nc2ccccc2Cl)c2ccccc21` has an EC50 (MCF7) of 46.4 µM and an EC50 (A549) greater than 100 µM.
`Cc1c(O)c(=O)ccn1CC(=O)N/N=C1\C(=O)N(CC(=O)Nc2ccc(Cl)cc2Cl)c2ccccc21` was tested, and the EC50 (MCF7) was 43.2 µM, the EC50 (MOLM-13) was 1620 nM and the EC50 (K562) was 1810 nM. It also gave an EC50 (A549) of 61.5 µM.
Compound `Cc1c(O)c(=O)ccn1CC(=O)N/N=C1\C(=O)N(CC(=O)Nc2ccccc2)c2ccccc21` has an EC50 (MCF7) of 48.4 µM and an EC50 (A549) of 29.2 µM.
`Cc1c(O)c(=O)ccn1CC(=O)N/N=C1\C(=O)N(CC(=O)Nc2cc(Cl)cc(Cl)c2)c2ccccc21` showed an EC50 (MCF7) of 35.1 µM, an EC50 (MOLM-13) of 690 nM and an EC50 (K562) of 1220 nM. It also gave an EC50 (A549) of 22.1 µM.
`Cc1c(O)c(=O)ccn1CC(=O)N/N=C1\C(=O)N(CC(=O)Nc2ccc(Cl)cc2)c2ccccc21` showed an EC50 (MCF7) of 31.4 µM and an EC50 (A549) of 28.3 µM.
`Cc1c(O)c(=O)ccn1CC(=O)N/N=C1\C(=O)N(CC(=O)Nc2ccc(Br)cc2)c2ccccc21` was tested, and the EC50 (MCF7) was 32.5 µM, the EC50 (MOLM-13) was 1170 nM and the EC50 (K562) was 1850 nM. The EC50 (A549) was 29.3 µM.
Work on `COc1ccc(NC(=O)CN2C(=O)/C(=N\NC(=O)Cn3ccc(=O)c(O)c3C)c3ccccc32)cc1` yielded an EC50 (MCF7) greater than 100 µM and an EC50 (A549) of 78 µM.
Work on `C#Cc1cccc(Nc2ncnc3cc(OCCOC)c(OCCOC)cc23)c1` [ERLOTINIB] yielded an EC50 (MCF7) of 2.83 µM and an EC50 (A549) of 0.29 µM.
